Literature values as cited in patent publication US6872562B2, “Herbicide resistant dinitrogen fixing bacteria and method of use” (priority 2001, dated 2005).

System: soybean
Conditions: in vivo; cited from earlier work

CCCN(CCC)c1c([N+](=O)[O-])cc(C(F)(F)F)cc1[N+](=O)[O-] [Trifuralin]
Effect on nodulation and N2 fixation: decreases nodulation and N2 fixation
